In ChEMBL document CHEMBL3600366, “New 4-[(3-cyclohexyl-4-aryl-2,3-dihydro-1,3-thiazol-2-ylidene)amino]benzene-1-sulfonamides, synthesis and inhibitory activity toward carbonic anhydrase I, II, IX, XII” (Bioorg Med Chem Lett, 2015):

Columns and labels:
[1] = molecular target: Carbonic anhydrase 1 (Homo sapiens, UniProt P00915); experiment: Inhibition of human carbonic anhydrase-1
[2] = molecular target: Carbonic anhydrase 9 (Homo sapiens, UniProt Q16790); experiment: Inhibition of human carbonic anhydrase-9

Carbonic anhydrase 1, sequence (P00915 whole entry): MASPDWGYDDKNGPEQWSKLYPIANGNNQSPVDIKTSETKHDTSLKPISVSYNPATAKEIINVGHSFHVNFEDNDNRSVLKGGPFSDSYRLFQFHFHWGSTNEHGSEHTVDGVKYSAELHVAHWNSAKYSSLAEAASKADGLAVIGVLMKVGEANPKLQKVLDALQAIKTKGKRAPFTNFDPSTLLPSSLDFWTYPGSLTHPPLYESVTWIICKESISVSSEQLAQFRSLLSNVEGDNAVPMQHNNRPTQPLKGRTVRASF

| SMILES | Ki [1] [nM] | Ki [2] [nM] |
| --- | --- | --- |
| NS(=O)(=O)c1ccc(/N=c2\scc(-c3ccc(Br)cc3)n2C2CCCCC2)cc1 | > 10000 |  |
| NS(=O)(=O)c1ccc(/N=c2\scc(-c3ccc(Cl)cc3)n2C2CCCCC2)cc1 |  | 353 |
| NS(=O)(=O)c1ccc(/N=c2\scc(-c3ccc(F)cc3)n2C2CCCCC2)cc1 |  | 274 |
| NS(=O)(=O)c1ccc(/N=c2\scc(-c3cccc([N+](=O)[O-])c3)n2C2CCCCC2)cc1 |  | 193 |
| NS(=O)(=O)c1ccc(/N=c2\scc(-c3ccc(Cl)cc3Cl)n2C2CCCCC2)cc1 |  | 342 |
| N#Cc1ccc(-c2cs/c(=N\c3ccc(S(N)(=O)=O)cc3)n2C2CCCCC2)cc1 |  | 29.5 |
| NS(=O)(=O)c1ccc(/N=c2\scc(-c3ccc(F)cc3F)n2C2CCCCC2)cc1 |  | 85.5 |
| NS(=O)(=O)c1ccc(/N=c2\scc(-c3ccc([N+](=O)[O-])cc3)n2C2CCCCC2)cc1 |  | 29.4 |
| NS(=O)(=O)c1ccc(/N=c2\scc(-c3ccc(-c4ccccc4)cc3)n2C2CCCCC2)cc1 |  | 32.5 |
| Cc1ccc(-c2cs/c(=N\c3ccc(S(N)(=O)=O)cc3)n2C2CCCCC2)cc1 |  | 22.7 |
| COc1ccc(-c2cs/c(=N\c3ccc(S(N)(=O)=O)cc3)n2C2CCCCC2)cc1 |  | 16.5 |
| NS(=O)(=O)c1ccc(/N=c2\scc(-c3cccs3)n2C2CCCCC2)cc1 |  | 150 |
| NS(=O)(=O)c1ccc(/N=c2\scc(-c3ccccc3)n2C2CCCCC2)cc1 |  | 354 |
